Values joined by “and” are separate entries in the source; they are usually repeats but may differ in a detail not shown here. Equal entries are not always repeated.
System: TPA-Induced DNA Synthesis in Mouse Epidermis
Experiment: TPA-induced DNA synthesis in mouse epidermis: [3H]thymidine incorporation and epidermal DNA content of a 2x2 cm2 skin section
Assay type: in vivo
Settings: Example 5; for cpm/μg DNA (group average ±) / corrected cpm / cpm/μg DNA / μg DNA / cpm: 20 h; for corrected cpm / cpm/μg DNA / μg DNA / cpm: individual mouse
Method: Epidermal hypeplasia is determined by measuring the stimulation in [^3H] thymidine incorporation as well as epidermal DNA content of a 2×2 cm^2 section of skin twenty hours after TPA application.
In prior experiments, 16α-fluoro-5-androsten-17-one was administered in escalating doses by the oral subcutaneous, intraperitoneal, and buccal routes of administration, and the effect on TPA-stimulated epidermal [^3H] thymidine incorporation and epidermal DNA content was determined.
In this experiment, the effect of treating mice subcutaneously (s.c.) with suspensions of 7α-hydroxy-16α-flouro-5-androsten-17-one and suspensions of 16aflouro-5-androsten-17-one were investigated.
Variousl6α-flouro-5-androsten-17 one suspensions (Q) were prepared. The vehicle was 95% saline (0.9% NaCl) and 5% Emulphor. For the 5 mg/kg s.c. suspension, 25.3 mg was suspended in 10 mL of Emulphor-saline. The other suspensions were made by diluting the 5 mg/kg suspension. For the 2.5 mg/kg suspension, 1 mL of 5mg/kg s.c. suspension was diluted to a final volume of 2mL, for the 1 m/kg suspension 1 mL of the 5 mg/kg suspension was made to a total of 5 mL, while for the 0.125 mg/kg suspension, 0.5 mL of the 5 mg/kg suspension was made to a final volume of 20 mL. Magnetic stir bars were added to the suspensions which were kept on a magnetic stirrer.
7α-hydroxy-16α-flouro-5-androsten-17-one was prepared as described hereinabove. For the 5 mg/kg s.c. suspension, 16.3 mg was suspended in 6.5 mL of Emulphor-saline. The other suspensions were made by diluting the 5 mg/kg suspension. For the 2.5 mg/kg, 1 mL of 5 mg/kg suspension was diluted to a final volume of 2 mL, for the 1 mg/kg suspension 1 mL of the 5 mg/kg suspension was made to total 5 mL, while for the 0.125 mg/kg suspension, 0.5 mL of the 5 mg/kg suspension was made up to final volume of 20 mL. Magnetic stir bars were added to the suspensions and the suspensions were kept on a magnetic stirrer.
Female CD-1 mice were obtained from Charles River Laboratories, Wilmington, Mass. at 44-46 days of age. The mice were housed two to three per cage in plastic shoebox cages on Alphacel bedding with 12 hours of alternating light and dark in the CAF Animal Facility, 6th floor, Pharmacy Building. The mice had ad libitum access-to Purina 5015 chow and acidified tap water (pH≦2.6). The mice were allowed to acclimate to the facility for one week prior to use in an experiment. Three days after obtaining the mice, the mice were shaved and weighed. Only those mice showing no hair regrowth were used in the experiment.
Four days after the mice were shaved, they were treated as follows:
The mice were sacrificed 20 hours after treatment by an overdose of CO2. Twenty minutes prior to sacrifice, the mice were injected with 60 μCi of [^3H]thymidine (Amersham Batch 297). The mice were treated with a depilatory to remove any residual hair. A 2×2 cm^2 piece of skin was excised, placed in ice water for 30 seconds, then in 55° C. water for 30 seconds, then ice water again for 30 seconds. The epidermis was scrapped off using a scalpel and the scrapings were placed into ice cold 0.4N TCA (trichloroacetic acid). The scrapings were homogenized using a Tekmar Tissumizer (80% power for 30 seconds). The homogenates were centrifuged for 20 minutes at 3,000×g. The precipitates were washed 3× with 0.2N TCA, and 2× with absolute ethanol. The DNA in each sample was hydrolyzed with 0.5N TCA for 30 minuts at 90°. The tubes were centrifuged for 20 minutes at 3000×g. A 0.2 mL aliquot of each hydrolysate was counted in a LKB Rackbeta scintillation counter using Scintiverse II BD as the counting medium. DNA content was determined by the Burton diphenylamine assay.
Various suspensions were prepared of 16α-fluoro-5-androsten-17-one as follows. The vehicle was 95% saline (0.9% NaCl) and 5% Emulphor. For the 5 mg/kg s.c. suspension, 27.8 mg was suspended in 11.4 mL of Emulphor-saline. The other suspensions were made by diluting the 5 mg/kg suspension. […]

[1] = 1 mg/kg s.c. 1 h before topical TPA 2 μg, 1 mg/kg
[2] = 1.75 mg/kg s.c. 1 h before topical TPA 2 μg, 1.75 mg/kg
[3] = 2.5 mg/kg s.c. 1 h before topical TPA 2 μg, 2.5 mg/kg
[4] = 3.75 mg/kg s.c. 1 h before topical TPA 2 μg, 3.75 mg/kg
[5] = 5 mg/kg s.c. 1 h before topical TPA 2 μg, 5 mg/kg

Q: `C[C@]12CCCCC1=C[C@H](O)[C@@H]1[C@@H]2CC[C@]2(C)C(=O)[C@H](F)C[C@@H]12` [7β-hydroxy-16α-fluoro-5-androsten-17-one, 16α-fluoro-7β-hydroxy-5-androsten-17-one] was tested. Which “cpm/μg DNA (group average ±)” value (1 mg/kg s.c. 1 h before topical TPA 2 μg) did it give?
A: The value was 283.4 ± 35.3 cpm/μg DNA.

Q: And the corrected cpm [1]?
A: Its corrected cpm is 4,501.0 cpm and 3,230.0 cpm.

Q: And the “cpm/μg DNA” value [1]?
A: The value was 308.3 cpm/μg DNA and 258.4 cpm/μg DNA.

Q: And the “μg DNA” value [1]?
A: Its value is 14.6 µg and 12.5 µg.

Q: What about the cpm (1 mg/kg s.c. 1 h before topical TPA 2 μg, female CD-1 mice, 1 mg/kg) of the same compound?
A: Its cpm is 4,527.0 cpm and 3,256.0 cpm.

Q: What about the “cpm/μg DNA (group average ±)” value (1.75 mg/kg s.c. 1 h before topical TPA 2 μg) of the same compound?
A: The value was 156.6 ± 17.0 cpm/μg DNA.

Q: And the corrected cpm [2]?
A: The corrected cpm was 1,445.0 cpm and 1,534.0 cpm.

Q: What about the cpm [2] of the same compound?
A: The cpm was 1,471.0 cpm and 1,560.0 cpm.

Q: What about the “cpm/μg DNA” value [2] of the same compound?
A: Its value is 144.5 cpm/μg DNA and 168.6 cpm/μg DNA.

Q: And the “μg DNA” value [2]?
A: Its value is 10.0 µg and 9.1 µg.

Q: And the “cpm/μg DNA (group average ±)” value (2.5 mg/kg s.c. 1 h before topical TPA 2 μg)?
A: Its value is 480.5 ± 117.6 cpm/μg DNA.

Q: What about the corrected cpm [3] of the same compound?
A: Its corrected cpm is 3,814.0 cpm and 5,861.0 cpm.

Q: And the cpm [3]?
A: Its cpm is 3,840.0 cpm and 5,887.0 cpm.

Q: What about the “cpm/μg DNA” value [3] of the same compound?
A: The value was 397.3 cpm/μg DNA and 563.6 cpm/μg DNA.

Q: What about the “μg DNA” value [3] of the same compound?
A: Its value is 9.6 µg and 10.4 µg.

Q: And the “cpm/μg DNA (group average ±)” value (3.75 mg/kg s.c. 1 h before topical TPA 2 μg)?
A: The value was 485.4 ± 115.3 cpm/μg DNA.

Q: And the corrected cpm [4]?
A: The corrected cpm was 4,706.0 cpm and 2,585.0 cpm.

Q: What about the cpm [4] of the same compound?
A: Its cpm is 4,732.0 cpm and 2,611.0 cpm.

Q: And the “cpm/μg DNA” value [4]?
A: Its value is 567.0 cpm/μg DNA and 403.9 cpm/μg DNA.

Q: And the “μg DNA” value [4]?
A: The value was 8.3 µg and 6.4 µg.

Q: What about the “cpm/μg DNA (group average ±)” value (5 mg/kg s.c. 1 h before topical TPA 2 μg) of the same compound?
A: The value was 653.7 ± 61.0 cpm/μg DNA.

Q: And the corrected cpm [5]?
A: The corrected cpm was 6,132.0 cpm and 3,908.0 cpm.

Q: And the cpm [5]?
A: Its cpm is 6,158.0 cpm and 3,934.0 cpm.

Q: And the “cpm/μg DNA” value [5]?
A: Its value is 696.8 cpm/μg DNA and 610.6 cpm/μg DNA.

Q: What about the “μg DNA” value [5] of the same compound?
A: Its value is 8.8 µg and 6.4 µg.

Q: And the “activity compared with 16α-fluoro-5-androsten-17-one (in words)” value (s.c.)?
A: Its value is “much more active”.

Q: And the “dose producing an overstimulation of [3H]thymidine incorporation” value (s.c.)?
A: The value was 2.5 mg/kg.

— patent publication US20040034003A1, “7-Hydroxy-16alpha-fluoro-5-androsten-17-ones and 7-hydroxy-16alpha-fluoro-5-androstan-17-ones and derivatives thereof” (priority 2002, published 2004)
